# Test results taken from the supplement of paper PMC10307832.
# Assays:
# Test in all cases: relative viability (nuclei count vs DMSO), 5 days (fraction); higher = more cells survive
# Dabrafenib + Decitabine = compound: CC(C)(C)c1nc(-c2cccc(NS(=O)(=O)c3c(F)cccc3F)c2F)c(-c2ccnc(N)n2)s1 [Dabrafenib] + Nc1ncn([C@H]2C[C@H](O)[C@@H](CO)O2)c(=O)n1 [Decitabine] (partner 2 µM)
# In short: (§1)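 Cells from lung cancer lines were seeded into 1536-well plates and, one day later, dosed by pin tool. Treatments were either a single drug or a fixed dose of an anchor drug with five library-drug doses (not always all listed) in √10 steps. After 5 days, nuclei were stained in a one-step fixation (final 0.05% Triton X-100, 1% formaldehyde, 1 ug/ml Hoechst) and counted on 4× images, and relative viability is the treated-to-vehicle nuclei ratio, as the median of duplicate plates.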
# Dabrafenib + Phenformin = compound: CC(C)(C)c1nc(-c2cccc(NS(=O)(=O)c3c(F)cccc3F)c2F)c(-c2ccnc(N)n2)s1 [Dabrafenib] + N=C(N)NC(=N)NCCc1ccccc1 [Phenformin] (partner 250 µM)
# In short: as §1
# VX-702 + Vorinostat = compound: NC(=O)c1ccc(N(C(N)=O)c2c(F)cccc2F)nc1-c1ccc(F)cc1F [VX-702] + O=C(CCCCCCC(=O)Nc1ccccc1)NO [Vorinostat] (partner 1 µM)
# In short: as §1
# Dabrafenib + Tozasertib = compound: CC(C)(C)c1nc(-c2cccc(NS(=O)(=O)c3c(F)cccc3F)c2F)c(-c2ccnc(N)n2)s1 [Dabrafenib] + Cc1cc(Nc2cc(N3CCN(C)CC3)nc(Sc3ccc(NC(=O)C4CC4)cc3)n2)n[nH]1 [Tozasertib] (partner 0.1 µM)
# In short: as §1
# Dabrafenib + Vorinostat = compound: CC(C)(C)c1nc(-c2cccc(NS(=O)(=O)c3c(F)cccc3F)c2F)c(-c2ccnc(N)n2)s1 [Dabrafenib] + O=C(CCCCCCC(=O)Nc1ccccc1)NO [Vorinostat] (partner 1 µM)
# In short: as §1
# VX-702 = compound: NC(=O)c1ccc(N(C(N)=O)c2c(F)cccc2F)nc1-c1ccc(F)cc1F [VX-702]
# In short: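 Lung cancer cell lines were seeded into 1536-well plates, kept overnight at 37 °C and pinned with five library-drug doses (not always all listed) spaced by √10. After 5 days, nuclei were Hoechst-stained, imaged at 4× and counted with MetaXpress. Viability is treated-well nuclei over vehicle-well nuclei, taken as a median across plates. Plates needed control CV below 25% and at least one doubling.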
cell line,measurement,setting,value
SW 900,relative viability,Dabrafenib + Decitabine; first compound 0.009487 µM,0.35
same,relative viability,Dabrafenib + Decitabine; first compound 0.09487 µM,0.486
same,relative viability,Dabrafenib + Decitabine; first compound 0.3 µM,0.394
same,relative viability,Dabrafenib + Phenformin; first compound 0.009487 µM,0.579
same,relative viability,Dabrafenib + Phenformin; first compound 0.03 µM,0.561
same,relative viability,Dabrafenib + Phenformin; first compound 0.3 µM,0.86
same,relative viability,VX-702 + Vorinostat; first compound 0.02 µM,0.492
same,relative viability,VX-702 + Vorinostat; first compound 0.2 µM,0.444
same,relative viability,VX-702 + Vorinostat; first compound 0.6325 µM,0.558
same,relative viability,VX-702 + Vorinostat; first compound 2 µM,0.516
same,relative viability,Dabrafenib + Tozasertib; first compound 0.009487 µM,0.711
same,relative viability,Dabrafenib + Tozasertib; first compound 0.03 µM,0.527
same,relative viability,Dabrafenib + Tozasertib; first compound 0.3 µM,0.632
same,relative viability,Dabrafenib + Vorinostat; first compound 0.009487 µM,0.455
same,relative viability,Dabrafenib + Vorinostat; first compound 0.09487 µM,0.714
same,relative viability,Dabrafenib + Vorinostat; first compound 0.3 µM,0.596
same,relative viability,VX-702; 0.02 µM,0.885
same,relative viability,VX-702; 0.2 µM,0.82
same,relative viability,VX-702; 0.6325 µM,0.775
same,relative viability,VX-702; 2 µM,1.02
